Data reported in patent US20060094755A1, “Novel quinoline-based metal chelators as antiviral agents” (Bioflexis, LLC, priority 2004, published 2006).

Key:
IN (integrase) = target: T1, IN (integrase) (Human immunodeficiency virus type 1 group M subtype B, UniProt P12497); details: cited from earlier work
T1 construct: HIV-1 recombinant IN (HIV-1NL4-3 Integrase, NIH AIDS Reagent program Catalog No:2959); purchased NIH AIDS Reagent program 2959

HIV = details: ex-vivo viral inhibition assay; cited from earlier work
HIV-1 MC99IIIBΔTat-Rev = assay: viral inhibition assay (p24 ELISA, CEM-TART cells), FIG. 4; type: cell-based; details: Human immunodeficiency virus 1
Excerpt: The novel compounds of the present invention can be further evaluated for their ability to inhibit viral replication in ex-vivo assays. Most common of these include determining the viral replication in either purified human CD4+ T cell blasts infected with HIV in the presence or absence of various concentrations of inhibitors or HIV infected MT4 cell line treated with different concentration of inhibitors. A standard laboratory method in screening for inhibitors against HIV in biological assays involves the use of recombinant HIV strain that can replicate only in the supporting complementing cell line. This model system allows the examination of HIV viral replication in a biologically contained manner and is suitable for inhibitor screening. The method is described briefly below. The recombinant HIV-1 strain (HIV-1 MC99IIIBΔTat-Rev; NIH Aids Reagent Program, catalog No: 1943) is genetically engineered to replicate only in supporting recombinant cell lines (CEM-TART Cells, NIH Aids Reagent Program catalog No 1944). The construction of the recombinant mutant virus, the supporting cell line and the biological assay are described in detail elsewhere. […] The extent of viral replication can be determined by measuring the soluble viral p24 protein present in the culture supernatant collected at 24, 48, 72 and 96-hr post infection using commercial ELISA kits.

Structure (SMILES)	inhibition of 3′ processing (IN (integrase))	inhibition of strand transfer reaction (IN (integrase))	EC50 (HIV)	IC50 (HIV-1 MC99IIIBΔTat-Rev)
O=C(O)C(=O)CC(=O)c1cc(OCc2ccccc2)cc(OCc2ccccc2)c1 [Compound 6]	do not inhibit 3′ processing	inhibit strand transfer reaction	–	–
O=C(O)C(=O)CC(=O)c1cccn1Cc1ccc(F)cc1 [Compound 8]	do not inhibit 3′ processing	inhibit strand transfer reaction	–	–
O=C(/C=C(\O)c1nn[nH]n1)c1c[nH]c2ccc(Cl)cc12 [Compound 10]	inhibit both reactions	inhibit both reactions	0.7 µM	–
O=C(O)CN(CCN(CCN(CC(=O)O)CC(=O)O)Cc1ccc2cccc(O)c2n1)CC(=O)O [Compound 16]	–	–	–	19.3 µM
